This note sets out measurements from US11046690B2, “Pyridazinones and methods of use thereof” (Goldfinch Bio, Inc., priority 2018, dated 2021).

For one assay, the target named is T1, TRPC5 (Homo sapiens, UniProt Q9UL62).
T1 construct: expressed in transfected cells
T1 sequence (Q9UL62 1-973): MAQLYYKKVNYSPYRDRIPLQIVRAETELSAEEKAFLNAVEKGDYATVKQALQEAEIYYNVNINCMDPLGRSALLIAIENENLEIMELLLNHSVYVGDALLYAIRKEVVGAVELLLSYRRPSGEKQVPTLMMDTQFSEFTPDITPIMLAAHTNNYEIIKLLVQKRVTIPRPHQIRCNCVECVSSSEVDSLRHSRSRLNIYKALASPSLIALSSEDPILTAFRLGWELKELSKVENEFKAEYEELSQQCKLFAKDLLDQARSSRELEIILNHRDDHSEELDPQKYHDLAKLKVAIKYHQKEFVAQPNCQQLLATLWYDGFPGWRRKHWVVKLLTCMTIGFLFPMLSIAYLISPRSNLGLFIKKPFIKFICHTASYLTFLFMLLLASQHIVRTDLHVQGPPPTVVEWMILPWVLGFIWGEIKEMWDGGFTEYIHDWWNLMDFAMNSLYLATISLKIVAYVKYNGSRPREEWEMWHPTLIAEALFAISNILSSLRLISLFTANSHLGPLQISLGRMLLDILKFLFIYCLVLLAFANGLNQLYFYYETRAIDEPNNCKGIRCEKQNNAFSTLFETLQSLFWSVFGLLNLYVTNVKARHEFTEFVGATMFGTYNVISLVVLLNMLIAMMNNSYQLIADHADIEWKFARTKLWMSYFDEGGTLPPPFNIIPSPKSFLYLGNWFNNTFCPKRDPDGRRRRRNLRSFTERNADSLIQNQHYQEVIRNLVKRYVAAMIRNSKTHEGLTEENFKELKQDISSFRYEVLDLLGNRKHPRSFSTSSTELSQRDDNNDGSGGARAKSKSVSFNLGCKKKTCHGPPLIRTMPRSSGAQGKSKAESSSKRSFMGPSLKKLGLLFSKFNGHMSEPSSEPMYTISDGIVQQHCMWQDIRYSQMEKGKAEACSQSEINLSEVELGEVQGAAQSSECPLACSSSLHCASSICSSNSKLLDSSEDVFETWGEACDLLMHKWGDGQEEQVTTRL
Put plainly: TRPC5 activity assay (FLIPR calcium fluorescence, Riluzole stimulation). In kind it is cell-based. The settings on record: HEK-TREx hTRPC5 cells, 30 μM Riluzole stimulation; read-out: TRPC5 (IC50 class). The procedure:
ICLN-1633 cells (HEK-TREx hTRPC5) expressing TRPC5 were generated as follows. Commercially available HekTrex-293 cells were seeded at 0.7×10^6 cells/well in a 1×6-well plate 24 hrs prior to transfection using 2 mL cell growth media containing no antibiotics (1× DMEM/high glucose (Hyclone #SH30022.02); 10% fetal bovine serum (Sigma) 2 mM sodium pyruvate, 10 mM HEPES). […] On day 2, 2 μg of plasmid DNA plus 6 μl of Xtreme-GENE HP reagent in Optimem (200 μl total volume) was prepared and incubated for 15 min at room temperature. This plasmid solution was then gently overlayed dropwise onto each well and the plate was gently swirled to mix complex with the media for approximately 30 seconds. Transfected cells were incubated at 37° C. in a 10%/CO2 incubator for 24 hrs. The transfected cells were harvested and transferred into 2×150 mm dishes containing cell growth media with no antibiotics at 37° C.
The next day selection was initiated to generate a stable pool by adding cell growth media containing 150 μg/mL Hygromycin and 5 μg/mL Blasticidin and cells were allowed to grow. Media with the selection agent was changed every 1-2 days as needed to remove dead cells. After 7 days, the hygromycin concentration was reduced to 75 μg/mL and cells growth was allowed to continue.
Single clones were selected as follows. The stable pool was diluted to 10 cells/mL and seeded (100 μl/well) into 24×96 well plates (˜1 cell/well) and allowed to grow for 7 days in cell growth media. Fresh media (100 μl) was added and the cells allowed to grow for another 1-2 weeks and then stored frozen or used immediately.
10-point dose response curves were generated using the Echo-550 acoustic dispenser. Compound source plates were made by serially diluting compound stocks to create 10 mM, 1 mM, and 0.1 mM solutions in DMSO into Echo certified LDV plates. The Echo then serially spotted 100%/DMSO stock solutions into source dose response plates to generate a 4-fold dilution scheme. 100%0/DMSO was added to the spotted dose response plates to bring the final volume to 5 μl. 300 nl of the dose response stock plate was then spotted into pre-incubation and stimulation assay plates. 50 μl of pre-incubation buffer and 100 μl of stimulation buffer was then added to the plates resulting in a final assay test concentration range of 30 μM to 0.0001 μM with a final DMSO concentration of 0.3%.
Human ICLN-1633 cells expressing were plated onto 384 well, black PDL-coated microplates and maintained in TRPC5 growth media the day prior to use for experiments. TRPC5 expression was induced by the application of 1 μg/mL tetracycline at the time of plating. […] Cells are incubated at room temperature, protected from light, for 60-90 minutes. After the incubation period, the dye is removed and replaced with 10 μl of EBSS. Cell, pre-incubation and stimulation plates are loaded onto the FLIPR-II and the assay is initiated. The FLIPR measures a 10 second baseline and then adds 10 μl of 2X compounds (or controls). Changes in fluorescence are monitored for an additional 5 minutes. After the 5 minute pre-incubation, 20 μl of 2X Riluzole (with 1X compound or controls) is added to the cell plate. The final Riluzole stimulation concentration in the assay is 30 μM. After the Riluzole addition, changes in fluorescence are monitored for an additional 5 minutes.
Compound modulation of TRPC5 calcium response was determined as follows. After the Englerin A, fluorescence was monitored for a 5-minute period. The maximum relative fluorescence response (minus the control response of 1 μM of an internal control compound known to maximally block TRPC5 calcium response, the “REF INHIB” in the formula below) was captured and exported from the FLIPR.
Compound effect is calculated as % inhibition using the following formula:
[formula] wherein “RFU” is the relative fluorescent units.

The subject of assay [1] is PAN induced glomerular kidney injury. Put plainly: Puromycin aminonucleoside (PAN)-induced glomerular injury in rats. Format: in vivo, Sprague-Dawley rats. The settings on record: PAN-injured rats. The text has this:
The objective of this study is to evaluate the dose-dependent effects of compound 100 on PAN induced glomerular kidney injury as indexed by albuminuria. Eighty (80), male Sprague-Dawley rats weighing approximately 125-150 g and approximately 5-6 weeks of age were acquired from Charles River. They were fed a standard chow diet (Harlan 8640), housed under standard conditions, and allowed to acclimate for at least 5 days prior to study inception. On D-2, rats were placed into weight-matched treatment groups and were placed, individually housed, into metabolic cages for the balance of the study. A 24 hour baseline (Day 0) urine was collected followed by a baseline blood collection via conscious tail venous puncture. Rats were then administered vehicle or test article. Two (2) hours following administration of vehicle or test agent on Day 0, rats received an administration of (5 ml/kg, s.c.) vehicle (sterile saline) or puromycin aminonucleoside (PAN; challenge agent; 75 mg/kg) dissolved in vehicle. Intermittent (Day 4, 7 and 10) 24 hour urine volumes were determined and samples (4 samples/animal/time point; 0.5 ml/sample) were obtained. Additionally, intermittent (Day 4, 7 and 10) blood samples were collected via conscious tail venous puncture 2 hours±1 minute post-AM dose. Immediately following the last blood collection, rats were anesthetized with isoflurane, tissues harvested, and animals sacrificed. Endpoint kidney weights and indices were obtained. Urine samples were immediately flash-frozen in liquid N2 and stored at −80° C. until analyzed. Whole blood samples collected on K3EDTA were processed appropriately for the production of plasma for PK measurements.

Assay [2] concerns AT1R transgenic rat model of FSGS. Put plainly: AT1R transgenic rat model of FSGS. Format: in vivo. The settings on record: AT1R transgenic rats, UniNX and AngII infusion, orally once daily 3 mg/kg or 10 mg/kg, up to 3 weeks. As for the experimental part: The AT1R transgenic rat model of FSGS is characterized by podocyte-specific expression of human AT1R. […] See Zhou et al., Science (2017), vol. 358 (6368), 1332-1336. In the present study, pathophysiology in AT1R transgenic rats was accelerated with unilateral nephrectomy (UniNX) and minipump AngII infusion. Compound 100 was dosed orally once daily at 3 mg/kg or 10 mg/kg, and the urine protein creatinine ratio was determined at -1, 0, 1, 2, and 3 weeks of treatment. […] UniNX, AngII […], and compound 100 […] occurred at the time points indicated.

As a reminder, the IC50 is the point on the concentration scale where inhibition reaches its midpoint. Turning to `CC1Cc2c(ncnc2Oc2ccc(F)cc2Cl)CN1c1cn[nH]c(=O)c1Cl` (single isomer, unassigned) [Compound 117a], at TRPC5, the IC50 was more than 1000 nM.
For `NC(=O)c1ncn([C@@H]2O[C@H](CO)[C@@H](O)[C@H]2O)c1O` [Mizoribine, reference compound], in assay [1] (positive control compound), the albuminuria entry is “efficacious in reducing albuminuria”.
With `O=c1[nH]ncc(N2CCc3c(ncnc3Oc3ccc(F)cc3C(F)(F)F)C2)c1Cl` [Compound 100, 4-chloro-5-[4-[4-fluoro-2-(trifluoromethyl)phenoxy]-5H,6H,7H,8H-pyrido[3,4-d]pyrimidin-7-yl]-2,3-dihydropyridazin-3-one], the “urine protein creatinine ratio” value in assay [2] is “efficacious”. The urinary albumin excretion result in assay [1] (30 mg/kg once daily (QD), at 10 days) is “Significant reductions”; in assay [1] (30 mg/kg twice daily (BID), at 7 and 10 days), “Significant reductions”.
Take `O=c1[nH]ncc(N2CCc3c(nc([C@H](O)CO)nc3Oc3ccc(F)cc3C(F)(F)F)C2)c1Cl` (single isomer, unassigned) [Compound 137]: the IC50 at TRPC5 was less than 50 nM.
Consider `CC(O)c1nc2c(c(Oc3ccc(F)cc3C(F)(F)F)n1)CCN(c1cn[nH]c(=O)c1Cl)C2` (single isomer, unassigned) [Compound 129, 4-Chloro-5-[4-[4-fluoro-2-(trifluoromethyl)phenoxy]-2-[(1 S)-1-hydroxyethyl]-5H,6H,7H,8H-pyrido[3,4-d]pyrimidin-7-yl]-2,3-dihydropyridazin-3-one], for which the IC50 on TRPC5 was less than 50 nM.
As to `CC(c1ccc(F)cc1C(F)(F)F)c1ncnc2c1CCN(c1cn[nH]c(=O)c1Cl)C2` (single isomer, unassigned) [Compound 126a], at TRPC5, the IC50 was in the range of 50 to 500 nM.
The same measure, in the same setting: in the case of `CC(c1ccc(F)cc1C(F)(F)F)c1ncnc2c1CCN(c1cn[nH]c(=O)c1Cl)C2` (single isomer, unassigned) [Compound 126, 4-Chloro-5-[4-[(1 S)-1-[4-fluoro-2-(trifluoromethyl)phenyl]ethyl]-5H,6H,7H,8H-pyrido[3,4-d]pyrimidin-7-yl]-2,3-dihydropyridazin-3-one] it was less than 50 nM; in that of `CC(O)c1nc2c(c(Oc3ccc(F)cc3C(F)(F)F)n1)CCN(c1cn[nH]c(=O)c1Cl)C2` (single isomer, unassigned) [Compound 130], less than 50 nM.
On to `O=c1[nH]ncc(N2CCc3c(nc([C@@H](O)CO)nc3Oc3ccc(F)cc3C(F)(F)F)C2)c1Cl` (single isomer, unassigned) [Compound 135], for which, at TRPC5, the IC50 is less than 50 nM.
